# Test system: patients with Wilson disease (WD)
# Test: UWDRS Part III total score, functional subscale and individual items (neurological examination)
# Type: in vivo, human
# Details: for UWDRS Part III (0-175) change from baseline, Mean (SD) / UWDRS Part III Functional Subscale (0-10) change from baseline, Mean (SD): pooled Studies 301 and 201
# Method: The UWDRS scoring system was developed specifically for the motor and movement disorders associated with chronic copper neurotoxicity in WD. Some individual items/subscales of the UWDRS Part III (arising from a chair, gait, handwriting, and speech) in addition to the UWDRS Parts I, II, and III overall, were assessed to further define the range of burdensome signs and symptoms of WD, so as to further understand the assessment of treatment effects on patients with WD. The UWDRS scores for consciousness (Part I) and abnormal neurologic examination findings (Part III) will be determined by a trained neurologist rater who is blinded to study treatment randomization. These scores were used to provide a rigorous dataset for evaluating changes from baseline.
# Unified Wilson Disease Rating Scale (Parts I, II, and III): The UWDRS is a clinical rating scale designed to evaluate the neurological manifestations of WD that generally can be divided into 3 movement disorder syndromes: dystonic, ataxic, and Parkinsonian syndrome. The UWDRS comprises 3 parts: UWDRS Part I (level of consciousness, item 1), UWDRS Part II (a patient-reported review of daily activity items [disability], items 2 to 11), and UWDRS Part III (a detailed neurological examination, items 12 to 34).
# The UWDRS Part I and Part III were assessed by a neurologist who is blinded to the treatment randomization, while UWDRS Part II may be reported to a non-blinded member of the study team by the patient, family member, or caregiver. The UWDRS has not been formally evaluated in adolescents. However, the components of Part I (level of consciousness), Part II (patient or caregiver-reported disability) and Part III (neurologic examination findings) were not fundamentally different between adults and adolescents. Patients aged 12 years and older were expected to be able to comply with UWDRS assessments.
# Pooled results from all such participants will be integrated together into one timeline to allow analyses of changes in UWDRS, long-term copper control, and long-term safety laboratory data.
# Endpoints (directly measured non-ceruloplasmin-bound copper [dNCC], UWDRS III (rater blinded) total and individual item scores, Clinical Global Impression-Improvement [CGI-I]) were evaluated at baseline (BL) and Week 48 (W48). Normalization (score decrease to 0), improvement (≥1 point decrease), stability (no change), or worsening (≥1 point increase) of total and individual UWDRS III item scores were evaluated at W48.
# [1] = Subpopulation E (incomplete or intolerant responders), Week 48, MMRM
# [2] = Subpopulation E (incomplete or intolerant responders), Week 48, TTM N=79, SoC N=38
substance,measurement,setting,value
bis-choline tetrathiomolybdate [TTM],UWDRS Part III score change (mean),"0-48W, symptomatic patients",−2.91
same,UWDRS symptom: Arising from chair,BL,85
same,UWDRS symptom: Arm and hand Dystonia,BL,64
same,UWDRS symptom: Cervical Dystonia,BL,74
same,UWDRS symptom: Chorea,BL,90
same,UWDRS symptom: Facial Expression,BL,57
same,UWDRS symptom: Finger Taps,BL,44
same,UWDRS symptom: Finger to Nose,BL,67
same,UWDRS symptom: Gait,BL,59
same,UWDRS symptom: Handwriting,BL,55
same,UWDRS symptom: Head Tremor,BL,84
same,UWDRS symptom: Involuntary Crying,BL,99
same,UWDRS symptom: Jaw Tremor,BL,99
same,UWDRS symptom: Leg Ability,BL,62
same,UWDRS symptom: Oculomotor,BL,89
same,UWDRS symptom: Postural Arm Tremor,BL,49
same,UWDRS symptom: Postural Leg Tremor,BL,68
same,UWDRS symptom: Posture,BL,67
same,UWDRS symptom: Pyramidal Signs,BL,89
same,UWDRS symptom: RAM of Hands,BL,48
same,UWDRS symptom: Rigidity,BL,58
same,UWDRS symptom: Speech,BL,44
same,UWDRS symptom: Stereotyped Actions,BL,93
same,UWDRS symptom: Tremor at rest,BL,75
same,UWDRS symptom: Wing-beating tremor,BL,64
same,"UWDRS-III, observed value, Mean (SD)","Baseline, N=220",15.43 (19.833)
same,"UWDRS Part III (0-175), Change from Baseline at 48 weeks, LSM",Study 301 Full Analysis Set,−0.60
same,"UWDRS Part III (0-175), Change from Baseline at 48 weeks, Mean",Study 301 Full Analysis Set,−2.20
same,"UWDRS Part III functional subscale (0-10), Change from Baseline at 48 weeks, LSM",Study 301 Full Analysis Set,0.001
same,"UWDRS Part III functional subscale (0-10), Change from Baseline at 48 weeks, Mean",Study 301 Full Analysis Set,−0.147
same,"UWDRS Part III-arising from chair (0-4), Change from Baseline at 48 weeks, LSM",Study 301 Full Analysis Set,0.0
same,"UWDRS Part III-arising from chair (0-4), Change from Baseline at 48 weeks, Mean",Study 301 Full Analysis Set,0.0
same,"UWDRS Part III-gait (0-10), Change from Baseline at 48 weeks, LSM",Study 301 Full Analysis Set,0.06
same,"UWDRS Part III-gait (0-10), Change from Baseline at 48 weeks, Mean",Study 301 Full Analysis Set,−0.06
same,"UWDRS Part III-handwriting (0-4), Change from Baseline at 48 weeks, LSM",Study 301 Full Analysis Set,−0.1
same,"UWDRS Part III-handwriting (0-4), Change from Baseline at 48 weeks, Mean",Study 301 Full Analysis Set,−0.1
same,"UWDRS Part III-speech (0-4), Change from Baseline at 48 weeks, LSM",Study 301 Full Analysis Set,0.0
same,"UWDRS Part III-speech (0-4), Change from Baseline at 48 weeks, Mean",Study 301 Full Analysis Set,−0.1
same,"UWDRS Part III change from baseline, LSM",[1],−2.52
same,"UWDRS Part III change from baseline, LSM Diff (TTM vs SoC)",[1],−0.53
same,"UWDRS Part III change from baseline, Mean",[2],−2.64
same,"UWDRS Part III change from baseline, Median",[2],−1.00
same,"UWDRS Part III, Change from Baseline, Max",[2],31.0
same,"UWDRS Part III, Change from Baseline, Min",[2],"−28.0,"
same,"UWDRS Part III, Change from Baseline, Q1",[2],"−6.00,"
same,"UWDRS Part III, Change from Baseline, Q3",[2],0.00
same,"UWDRS-III change from baseline, Mean (SD)","TTM exposure 4 weeks, N=215",−0.72 (6.701)
same,"UWDRS Part III (0-175) change from baseline, Mean (SD)",TTM exposure 4 weeks,−0.72 (6.701)
same,"UWDRS Part III Functional Subscale (0-10) change from baseline, Mean (SD)",TTM exposure 4 weeks,−0.072 (0.6009)
same,"UWDRS-III change from baseline, Mean (SD)","TTM exposure 12 weeks, N=204",−1.11 (7.065)
same,"UWDRS Part III (0-175) change from baseline, Mean (SD)",TTM exposure 12 weeks,−1.11 (7.065)
same,"UWDRS Part III Functional Subscale (0-10) change from baseline, Mean (SD)",TTM exposure 12 weeks,−0.137 (0.7864)
same,"UWDRS-III change from baseline, Mean (SD)","TTM exposure 24 weeks, N=182",−0.97 (8.447)
same,"UWDRS Part III (0-175) change from baseline, Mean (SD)",TTM exposure 24 weeks,−0.97 (8.447)
same,"UWDRS Part III Functional Subscale (0-10) change from baseline, Mean (SD)",TTM exposure 24 weeks,−0.157 (0.9091)
same,"UWDRS-III change from baseline, Mean (SD)","TTM exposure 36 weeks, N=156",−2.38 (8.581)
same,"UWDRS Part III (0-175) change from baseline, Mean (SD)",TTM exposure 36 weeks,−2.38 (8.581)
same,"UWDRS Part III Functional Subscale (0-10) change from baseline, Mean (SD)",TTM exposure 36 weeks,−0.286 (0.9929)
same,"UWDRS-III change from baseline, Mean (SD)","TTM exposure 48 weeks, N=156",−3.37 (9.778)
same,"UWDRS Part III (0-175) change from baseline, Mean (SD)",TTM exposure 48 weeks,−3.37 (9.778)
same,"UWDRS Part III Functional Subscale (0-10) change from baseline, Mean (SD)",TTM exposure 48 weeks,−0.345 (1.0940)
same,"UWDRS-III change from baseline, Mean (SD)","TTM exposure 60 weeks, N=141",−2.00 (6.40)
same,"UWDRS Part III (0-175) change from baseline, Mean (SD)",TTM exposure 60 weeks,−2.00 (6.40)
same,"UWDRS Part III Functional Subscale (0-10) change from baseline, Mean (SD)",TTM exposure 60 weeks,−0.422 (1.0814)
same,"UWDRS-III change from baseline, Mean (SD)","TTM exposure 72 weeks, N=125",−4.93 (11.682)
same,"UWDRS Part III (0-175) change from baseline, Mean (SD)",TTM exposure 72 weeks,−4.93 (11.682)
same,"UWDRS Part III Functional Subscale (0-10) change from baseline, Mean (SD)",TTM exposure 72 weeks,−0.494 (1.2826)
same,"UWDRS-III change from baseline, Mean (SD)","TTM exposure 96 weeks, N=66",−7.95 (14.078)
same,"UWDRS Part III (0-175) change from baseline, Mean (SD)",TTM exposure 96 weeks,−7.95 (14.078)
same,"UWDRS Part III Functional Subscale (0-10) change from baseline, Mean (SD)",TTM exposure 96 weeks,−0.900 (1.5193)
same,"UWDRS-III change from baseline, Mean (SD)","TTM exposure 120 weeks, N=50",−8.92 (15.045)
same,"UWDRS Part III (0-175) change from baseline, Mean (SD)",TTM exposure 120 weeks,−8.92 (15.045)
same,"UWDRS Part III Functional Subscale (0-10) change from baseline, Mean (SD)",TTM exposure 120 weeks,−0.946 (1.7746)
same,"UWDRS-III change from baseline, Mean (SD)","TTM exposure 144 weeks, N=42",−9.78 (15.423)
same,"UWDRS Part III (0-175) change from baseline, Mean (SD)",TTM exposure 144 weeks,−9.78 (15.423)

# Source: US20260216238A1, “TETRATHIOMOLYBDIC ACID FOR USE IN TREATING COPPER METABOLISM-ASSOCIATED DISEASES OR DISORDERS (WILSON DISEASE)” (Alexion Pharmaceuticals, Inc., priority 2023, published 2026)
